Data reported in patent US5770625A, “Butyryl-tyrosinyl spermine, analogs thereof and methods of preparing and using same” (priority 1994, dated 1998).
“Also recorded” adds a separate entry of the source. Where two headings read alike, the source gives them in different places.

System: postsynaptic QUIS-R of locust leg muscle
Experiment: Antagonism of neurally-evoked twitch contraction of locust retractor unguis nerve-muscle preparation
Parameters: species or system Schistocerca gregaria
Details: for IC50: read-out: IC50
Source text: Electrophysiological studies. The metathoracic retractor unguis nerve-muscle preparation of the locust Schistocerca gregaria was dissected and mounted in a small Perspex bath as described previously (21). The pharmacological activity on the locust nerve muscle preparation, using reduction in neurally evoked twitch amplitude as the measure of activity. Ten fractions were pharmacologically active. […] Further purification of this fraction by reverse-phase HPLC gave four peaks (FIG. 2B), the most pharmacologically was in the major peak (hatched FIG. 2B) . This fraction gave 1.1 mg of toxin as amorphous powder.
The retractor unguis muscle and its nerve were dissected from the metathoracic legs of adult, female locusts (Schistocerca gregaria) and mounted in a Perspex perfusion chamber as described by Usherwood and Machili (21) and Bateman, et al. (14). The muscle was stretched to maximal body length and attached at its tendon or apodeme to a Grass FT 10-strain gauge by a short length of nylon thread. The volume of the muscle bath was about 0.5 ml and its contents could be exchanged within 1 sec. The preparation was perfused continuously at the rate of 5-10 ml min^-1 (except during the application of toxin (see below)) with standard locust saline of the following composition (mM): NaCl, 180; KCl, 10; CaCl2, 2; Hepes, 10; buffered to pH 6.8. The retractor unguis muscle is innervated by two excitatory motoneurons (30) and an inhibitory motoneuron (19,32), but the influence of the latter on the responsiveness of the muscle is slight. Maximal stimulation of the retractor unguis nerve at 0.2 Hz produced a series of twitch contractions of constant amplitude, which were maintained for many hours in good preparations. The test compounds were kept at -20° C. They were dissolved in locust saline on the day of the assay and tested at room temperature. The compounds were applied by pipette to a nerve-muscle preparation such that the contents of the perfusion bath were completely replaced by the test solution. Exposure to the test compound lasted 20 min. Because of the limited availability of some of the compounds, the preparation was not perfused during this period. However, the amplitude of the retractor unguis muscle twitch rarely changed by more than 5-10% over a 20 minute period. During application of the test solutions the stimulation frequency was raised to 0.6 Hz for brief periods to test for stimulus frequency-dependent effects on twitch amplitude (31,37). Dose-inhibition data were obtained by testing the effects, on single retractor unguis muscle preparations, of a range of concentrations of the test compounds. Each concentration of the respective samples was tested at least thee times, and each compound was assayed usually over a 100-fold concentration range (a total of 7-10 concentrations). The standard deviations for twitch inhibition for any given concentration of a toxin rarely exceed 10%. Those compounds for which the deviation was greater than this are identified in Tables 1-7. There was some variation in the potency of PhTX-343 and the test compounds between nerve-muscle preparations. In order to compensate for this, the following procedure was adopted: PhTX-343 was assayed at a variety of concentrations on eight retractor unguis nerve-muscle preparations to give a cumulative dose-inhibition relationship for this toxin. The concentration of PhTX-343 which reduced the twitch contraction by 50% (IC50) was then determined by fitting a curve to the data using the following equation: [formula] where: [T]= toxin concentration, I= % inhibition, Imax =maximum inhibition= 100% and n' represents the Hill slope coefficient. […] The ratio of the actual reduction in twitch amplitude obtained with this single concentration of PhTX-343 and the 50% reduction that was anticipated from the cumulative dose-inhibition relationship for this toxin, was then used as a factor to normalize the data for the test compound. […]

[1] = Table 7, bis-acyl spermine analogues
[2] = Table 7, bis-acyl spermine analogues, relative to PhTX-343
[3] = Table 1, region A modifications, 20 min exposure, normalized with PhTX-343, ** SD < 30%
[4] = Table 1, relative to PhTX-343 = 1.0
[5] = Table 2, region B modifications, * SD < 20%
[6] = Table 2, relative to PhTX-343 = 1.0
[7] = Table 3, region C modifications
[8] = Table 3, relative to PhTX-343 = 1.0
[9] = Table 4, terminal amino group modifications, * SD < 20%
[10] = Table 4, relative to PhTX-343 = 1.0
[11] = Table 5, modifications to more than one region
[12] = Table 7, mono-acyl spermine analogues
[13] = Table 7, mono-acyl spermine analogues, relative to PhTX-343

## [N-]=[N+]=Nc1ccc(C(=O)N[C@@H](Cc2cc(I)c(O)c(I)c2)C(=O)NCCCNCCCCNCCCNC(=O)[C@@H](N)CCCCN)cc1 [Compound 41, N- (.rho.-azidobenzamide)-di-iodo-L-tyrosyl-spermine-L-lysine-triamide]
  potency compared with PhTX-343 or other analogues (in words): more potent than the latter

## CCCCCCC(=O)NCCCNCCCCNCCCN [Compound 48, Heptanoylspermine-amide]
  potency compared with PhTX-343 or other analogues (in words): low potencies

## CCCC(=O)NCCCNCCCCNCCCNC(=O)CCC [Compound 50]
  potency compared with PhTX-343 or other analogues (in words): low potencies
[1]
  IC50: 2300 µM
[2]
  Relative Potency: 0.1

## CCCCCCCCCC(=O)NCCCNCCCCNCCCNC(=O)CCCCCCCCC [Compound 52, bis-C10 -spermine]
  potency compared with PhTX-343 or other analogues (in words): as active as PhTX-343; also recorded: relatively high potencies

## CCCC(=O)N[C@@H](Cc1ccc(O)cc1)C(=O)NCCCNCCCCNCCCN [drawing 21]
[3]
  IC50: 23 µM
[4]
  Relative Potency: 1.0

## CCCC(=O)N[C@@H](Cc1ccc(O)cc1)C(=O)NCCCCNCCCNCCCN [drawing 22]
[3]
  IC50: 18 µM
[4]
  Relative Potency: 1.3

## CCCC(=O)N[C@@H](Cc1ccc(O)cc1)C(=O)NCCCNCCCNCCCCN [drawing 23]
[3]
  IC50: 15 µM
[4]
  Relative Potency: 1.5

## CCCC(=O)N[C@@H](Cc1ccc(O)cc1)C(=O)NCCCCNCCCN [drawing 24]
[3]
  IC50: 39 µM
[4]
  Relative Potency: 0.6

## CCCC(=O)N[C@@H](Cc1ccc(O)cc1)C(=O)NCCCCN [drawing 25]
[3]
  IC50: 2000 µM
[4]
  Relative Potency: 0.01

## CCCC(=O)N[C@@H](Cc1ccc(O)cc1)C(N)=O [drawing 26]
[3]
  IC50: 500 µM
[4]
  Relative Potency: 0.05

## CCCC(=O)N[C@@H](Cc1ccc(O)cc1)C(=O)NCCCCNCC(C)CNCCCN (some centres unmarked) [drawing 27]
[3]
  IC50: 40 µM
[4]
  Relative Potency: 0.6

## CCCCC(CNCCCN)CNCCCCNC(=O)[C@H](Cc1ccc(O)cc1)NC(=O)CCC (some centres unmarked) [drawing 28]
[3]
  IC50: 4 µM
[4]
  Relative Potency: 5.6

## CCCC(=O)N[C@@H](Cc1ccc(O)cc1)C(=O)NCCC[N+](C)(C)CCCC[N+](C)(C)CCC[N+](C)(C)C [drawing 29]
[3]
  IC50: 130 µM
[4]
  Relative Potency: 0.2

## CCCC(=O)N[C@@H](Cc1ccc(O)cc1)C(=O)NCCCNCCCCNCCCN [drawing 31]
[5]
  IC50: 23 µM
[6]
  Relative Potency: 1.0

## CCCC(=O)N[C@@H](Cc1ccc(OC(C)=O)cc1)C(=O)NCCCNCCCCNCCCN [drawing 33]
[5]
  IC50: 33 µM
[6]
  Relative Potency: 0.7

## CCCC(=O)N[C@@H](Cc1ccc(OCc2ccccc2)cc1)C(=O)NCCCNCCCCNCCCN [drawing 34]
[5]
  IC50: 24 µM
[6]
  Relative Potency: 1.0

## CCCC(=O)N[C@@H](Cc1cc(I)c(O)c(I)c1)C(=O)NCCCNCCCCNCCCN [drawing 35]
[5]
  IC50: 5.3 µM
[6]
  Relative Potency: 4.4

## CCCC(=O)N[C@@H](CC(C)C)C(=O)NCCCNCCCCNCCCN [drawing 36]
[5]
  IC50: 23 µM
[6]
  Relative Potency: 1.0

## CCCC(=O)N[C@@H](C)C(=O)NCCCNCCCCNCCCN [drawing 37]
[5]
  IC50: 45 µM
[6]
  Relative Potency: 0.5

## CCCC(=O)NCC(=O)NCCCNCCCCNCCCN [drawing 38]
[5]
  IC50: 130 µM
[6]
  Relative Potency: 0.2

## CCCC(=O)N[C@@H](Cc1c[nH]c2ccccc12)C(=O)NCCCNCCCCNCCCN [drawing 39]
[5]
  IC50: 2.5 µM
[6]
  Relative Potency: 9.2

## CCCC(=O)N[C@@H](Cc1ccc(O)cc1)C(=O)NCCCNCCCCNCCCN [drawing 41]
[7]
  IC50: 23 µM
[8]
  Relative Potency: 1.0

## CC(=O)N[C@@H](Cc1ccc(O)cc1)C(=O)NCCCNCCCCNCCCN [drawing 42]
[7]
  IC50: 50 µM
[8]
  Relative Potency: 0.7

## CCCCCCC(=O)N[C@@H](Cc1ccc(O)cc1)C(=O)NCCCNCCCCNCCCN [drawing 43]
[7]
  IC50: 10 µM
[8]
  Relative Potency: 2.7

## C/C=C/C=C/C(=O)N[C@@H](Cc1ccc(O)cc1)C(=O)NCCCNCCCCNCCCN [drawing 45]
[7]
  IC50: 1.6 µM
[8]
  Relative Potency: 14.0

## NCCCNCCCCNCCCNC(=O)[C@H](Cc1ccc(O)cc1)NC(=O)C1CCCCC1 [drawing 46]
[7]
  IC50: 9.3 µM
[8]
  Relative Potency: 2.5

## NCCCNCCCCNCCCNC(=O)[C@H](Cc1ccc(O)cc1)NC(=O)c1ccccc1 [drawing 47]
[7]
  IC50: 2.83 µM
[8]
  Relative Potency: 8.2

## NCCCNCCCCNCCCNC(=O)[C@H](Cc1ccc(O)cc1)NC(=O)Cc1ccccc1 [drawing 48]
[7]
  IC50: 12 µM
[8]
  Relative Potency: 0.5

## NCCCNCCCCNCCCNC(=O)[C@H](Cc1ccc(O)cc1)NC(=O)/C=C/c1ccccc1 [drawing 49]
[7]
  IC50: 2 µM
[8]
  Relative Potency: 12.0

## [N-]=[N+]=Nc1ccc(C(=O)N[C@@H](Cc2ccc(O)cc2)C(=O)NCCCNCCCCNCCCN)cc1 [drawing 50]
[7]
  IC50: 4.2 µM
[8]
  Relative Potency: 5.5

## [N-]=[N+]=C(C(=O)NCCCC(=O)N[C@@H](Cc1ccc(O)cc1)C(=O)NCCCNCCCCNCCCN)C(F)(F)F [drawing 51]
[7]
  IC50: 290 µM
[8]
  Relative Potency: 0.1

## CCCC(=O)N[C@@H](Cc1ccc(O)cc1)C(=O)NCCCNCCCCNCCCN [drawing 57]
[9]
  IC50: 23 µM
[10]
  Relative Potency: 1.0

## CCCC(=O)N[C@@H](Cc1ccc(O)cc1)C(=O)NCCCNCCCCNCCCNC(C)=O [drawing 58]
[9]
  IC50: 300 µM
[10]
  Relative Potency: 0.08

## CCCC(=O)N[C@@H](Cc1ccc(O)cc1)C(=O)NCCCNCCCCNCCCNC(=O)CN [drawing 59]
[9]
  IC50: 100 µM
[10]
  Relative Potency: 0.2

## CCCC(=O)N[C@@H](Cc1ccc(O)cc1)C(=O)NCCCNCCCCNCCCNC(=O)CCCN [drawing 60]
[9]
  IC50: 68 µM
[10]
  Relative Potency: 0.3

## CCCC(=O)N[C@@H](Cc1ccc(O)cc1)C(=O)NCCCNCCCCNCCCNC(=O)C(N)CCCCN (some centres unmarked) [drawing 61]
[9]
  IC50: 13 µM
[10]
  Relative Potency: 1.8

## CCCC(=O)N[C@@H](Cc1ccc(O)cc1)C(=O)NCCCNCCCCNCCCNC(=O)[C@@H](N)CCCNC(=N)N [drawing 62]
[9]
  IC50: 6.3 µM
[10]
  Relative Potency: 3.7

## CCCC(=O)N[C@@H](Cc1ccc(O)cc1)C(=O)NCCCNCCCCNCCCNC(=O)C(N)CCCCNC(=O)C(N)CCCCN (some centres unmarked) [drawing 63]
[9]
  IC50: 11 µM
[10]
  Relative Potency: 2.1

## CCCC(=O)N[C@@H](Cc1cc(I)c(O)c(I)c1)C(=O)NCCCNCCCCNCCCNC(=O)[C@@H](N)CCCCN [drawing 65]
[11]
  IC50: 1.7 µM
Table 5, relative to PhTX-343
  Relative Potency: 14

## CCCC(=O)N[C@@H](Cc1cc(I)c(O)c(I)c1)C(=O)NCCCNCCCCNCCCNC(=O)[C@@H](N)CCCNC(=N)N [drawing 66]
[11]
  IC50: 0.7 µM
Table 5, relative to PhTX-343
  Relative Potency: 33

## [N-]=[N+]=Nc1ccc(C(=O)N[C@@H](Cc2cc(I)c(O)c(I)c2)C(=O)NCCCNCCCCNCCCNC(=O)[C@@H](N)CCCCN)cc1 [drawing 68]
[11]
  IC50: 1.8 µM
Table 5, relative to PhTX-343
  Relative Potency: 13

## CCCCCCC(=O)NCCCNCCCCNCCCN [drawing 77]
[12]
  IC50: 100 µM
[13]
  Relative Potency: 0.2

## CCCCCCCCCC(=O)NCCCNCCCCNCCCN [drawing 78]
[12]
  IC50: 10 µM
[13]
  Relative Potency: 2.3

## CCCCCCCCCC(=O)NCCCNCCCCNCCCNC(=O)CCCCCCCCC [drawing 82]
[1]
  IC50: 23 µM
[2]
  Relative Potency: 1.0
